The source of these data is patent publication US12576039B2, “Lipid-polymer compositions and methods of use” (Max Biology Co. Ltd., priority 2020, dated 2026).

Series [1] can be described thus: Saturated solubility of CBD (HPLC). It is filed as physicochemical. The following applies: formulations containing PLURONIC F127 from 7% to 11%, excess CBD stirred overnight at room temperature, filtered 0.45 μm. As to the method:
To determine the saturated solubility of CBD in the presence of PLURONIC® F127, PLURONIC® formulations were made as above. To each formulation excess CBD was added and left stirring overnight on a magnetic stirrer at room temperature (FIG. 17). To see how addition of lipids affects saturated solubility, lipids were added to 5% PLURONIC® F127 containing excess CBD using the ethanol injection method. For this, a 19G needle was immersed into the formulation being stirred, and 8.11% (volume of sample end volume) of the lipid stock formulation was injected at the rate of 750 μl/7 sec. Each formulation at this point was then left stirring overnight as above. On the following day, the formulations were filtered using 0.45 μm syringe filters and the amount of CBD dissolved was quantified using high pressure liquid chromatography.
CBD content was determined by diluting the samples in acetonitrile (ACN) (as needed) and then analysing them using HPLC. Calibration curve and sample quantification was carried out using an Agilent Infinity 1260 system. An Eclipse Plus C18, 4.6×150 mm, 3.5 μm column was purchased from […]. The mobile phase used was ACN:Water (82:18 v/v). HPLC analysis was carried at room temperature at a flow rate of 1 ml/min and an injection volume of 20 μl. […] Particle size and polydispersity was determined using a Brookhaven dynamic light scattering system.

The conditions of series [2]: very low solubility in water, high lipophilicity; cited from earlier work.

As for `C=C(C)[C@@H]1CCC(C)=C[C@H]1c1c(O)cc(CCCCC)cc1O` [CBD, cannabidiol], the “peak CBD concentration (saturated solubility)” value in series [1] was “approximately 2 % w/v”. Besides, in series [2], the “Biopharmaceutical Classification System (BCS) classification” value is recorded as “class 2”.
